Data published in PubChem BioAssay (NCI).
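Five concentrations, 48 hours, 96-well plates. TGI: concentration producing complete growth inhibition.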

What was measured:
Assay in all cases: growth of human tumour cells (NCI), 48 h
OVCAR-8 ovarian = system: OVCAR-8 ovarian
SF-295 CNS = system: SF-295 CNS
NCI-H460 lung = system: NCI-H460 lung
K-562 leukemia = system: K-562 leukemia
COLO 205 colon = system: COLO 205 colon
RXF 393 renal = system: RXF 393 renal
M19-MEL melanoma = system: M19-MEL melanoma
SNB-78 CNS = system: SNB-78 CNS
EKVX NSCLC = system: EKVX NSCLC
SNB-75 CNS = system: SNB-75 CNS
OVCAR-3 ovarian = system: OVCAR-3 ovarian
DMS 114 small cell lung = system: DMS 114 small cell lung
DLD-1 colon = system: DLD-1 colon
SK-OV-3 ovarian = system: SK-OV-3 ovarian
LXFL 529 NSCLC = system: LXFL 529 NSCLC
A498 renal = system: A498 renal
KM12 colon = system: KM12 colon
HCC-2998 colon = system: HCC-2998 colon
HOP-62 NSCLC = system: HOP-62 NSCLC
A549 NSCLC = system: A549 NSCLC
SNB-19 CNS = system: SNB-19 CNS
SF-539 CNS = system: SF-539 CNS
786-0 renal = system: 786-0 renal
IGROV1 ovarian = system: IGROV1 ovarian
HT29 colon = system: HT29 colon
UACC-257 melanoma = system: UACC-257 melanoma
OVCAR-4 ovarian = system: OVCAR-4 ovarian
CCRF-CEM leukemia = system: CCRF-CEM leukemia
U251 CNS = system: U251 CNS
SK-MEL-2 melanoma = system: SK-MEL-2 melanoma
DMS 273 small cell lung = system: DMS 273 small cell lung
ACHN renal = system: ACHN renal
SK-MEL-28 melanoma = system: SK-MEL-28 melanoma
HOP-18 NSCLC = system: HOP-18 NSCLC
KM20L2 colon = system: KM20L2 colon
XF 498 CNS = system: XF 498 CNS
RXF-631 renal = system: RXF-631 renal
MOLT-4 leukemia = system: MOLT-4 leukemia
HL-60(TB) leukemia = system: HL-60(TB) leukemia
NCI-H23 lung = system: NCI-H23 lung
RPMI-8226 leukemia = system: RPMI-8226 leukemia
HCT-116 colon = system: HCT-116 colon
SN12C renal = system: SN12C renal
CAKI-1 renal = system: CAKI-1 renal
M14 melanoma = system: M14 melanoma
SW-620 colon = system: SW-620 colon
HCT-15 colon = system: HCT-15 colon
UO-31 renal = system: UO-31 renal
SR leukemia = system: SR leukemia
HOP-92 NSCLC = system: HOP-92 NSCLC
UACC-62 melanoma = system: UACC-62 melanoma
NCI-H522 lung = system: NCI-H522 lung
SK-MEL-5 melanoma = system: SK-MEL-5 melanoma
SF-268 CNS = system: SF-268 CNS
TK-10 renal = system: TK-10 renal
LOX IMVI melanoma = system: LOX IMVI melanoma
OVCAR-5 ovarian = system: OVCAR-5 ovarian
NCI-H226 lung = system: NCI-H226 lung
MALME-3M melanoma = system: MALME-3M melanoma

What does the source list for COc1c(CC(=O)c2ccccc2)c2ccccc2n1C(C)=O?
TGI (OVCAR-8 ovarian): > 100 µM; TGI (SF-295 CNS): > 100 µM; TGI (NCI-H460 lung): > 100 µM; TGI (K-562 leukemia): > 100 µM; TGI (COLO 205 colon): > 100 µM; TGI (RXF 393 renal): > 100 µM; TGI (M19-MEL melanoma): > 100 µM; TGI (SNB-78 CNS): > 100 µM; TGI (EKVX NSCLC): > 100 µM; TGI (SNB-75 CNS): > 100 µM; TGI (OVCAR-3 ovarian): > 100 µM; TGI (DMS 114 small cell lung): > 100 µM; TGI (DLD-1 colon): > 100 µM; TGI (SK-OV-3 ovarian): > 100 µM; TGI (LXFL 529 NSCLC): > 100 µM; TGI (A498 renal): > 100 µM; TGI (KM12 colon): > 100 µM; TGI (HCC-2998 colon): > 100 µM; TGI (HOP-62 NSCLC): > 100 µM; TGI (A549 NSCLC): > 100 µM; TGI (SNB-19 CNS): > 100 µM; TGI (SF-539 CNS): > 100 µM; TGI (786-0 renal): > 100 µM; TGI (IGROV1 ovarian): > 100 µM; TGI (HT29 colon): > 100 µM; TGI (UACC-257 melanoma): > 100 µM; TGI (OVCAR-4 ovarian): > 100 µM; TGI (CCRF-CEM leukemia): > 100 µM; TGI (U251 CNS): > 100 µM; TGI (SK-MEL-2 melanoma): > 100 µM; TGI (DMS 273 small cell lung): > 100 µM; TGI (ACHN renal): > 100 µM; TGI (SK-MEL-28 melanoma): > 100 µM; TGI (HOP-18 NSCLC): > 100 µM; TGI (KM20L2 colon): > 100 µM; TGI (XF 498 CNS): > 100 µM; TGI (RXF-631 renal): > 100 µM; TGI (MOLT-4 leukemia): > 100 µM; TGI (HL-60(TB) leukemia): > 100 µM; TGI (NCI-H23 lung): > 100 µM; TGI (RPMI-8226 leukemia): > 100 µM; TGI (HCT-116 colon): > 100 µM; TGI (SN12C renal): > 100 µM; TGI (CAKI-1 renal): > 100 µM; TGI (M14 melanoma): > 100 µM; TGI (SW-620 colon): > 100 µM; TGI (HCT-15 colon): > 100 µM; TGI (UO-31 renal): > 100 µM; TGI (SR leukemia): > 100 µM; TGI (HOP-92 NSCLC): > 100 µM; TGI (UACC-62 melanoma): > 100 µM

Which results are given for C/C(=N\N(C)C)C(CN1CCCCC1)C(c1ccccc1)c1c(O)c2ccccc2oc1=O (stereo not given)?
TGI (OVCAR-8 ovarian): > 100 µM; TGI (SF-295 CNS): > 100 µM; TGI (NCI-H460 lung): > 100 µM; TGI (K-562 leukemia): > 100 µM; TGI (COLO 205 colon): > 100 µM; TGI (NCI-H522 lung): > 100 µM; TGI (RXF 393 renal): > 100 µM; TGI (M19-MEL melanoma): > 100 µM; TGI (SNB-78 CNS): > 100 µM; TGI (EKVX NSCLC): > 100 µM; TGI (SNB-75 CNS): > 100 µM; TGI (OVCAR-3 ovarian): > 100 µM; TGI (DMS 114 small cell lung): > 100 µM; TGI (DLD-1 colon): > 100 µM; TGI (SK-OV-3 ovarian): > 100 µM; TGI (LXFL 529 NSCLC): > 100 µM; TGI (A498 renal): > 100 µM; TGI (SK-MEL-5 melanoma): > 100 µM; TGI (KM12 colon): > 100 µM; TGI (HOP-62 NSCLC): > 100 µM; TGI (A549 NSCLC): > 100 µM; TGI (SNB-19 CNS): > 100 µM; TGI (SF-539 CNS): > 100 µM; TGI (786-0 renal): > 100 µM; TGI (IGROV1 ovarian): > 100 µM; TGI (HT29 colon): > 100 µM; TGI (UACC-257 melanoma): > 100 µM; TGI (SF-268 CNS): > 100 µM; TGI (OVCAR-4 ovarian): > 100 µM; TGI (CCRF-CEM leukemia): > 100 µM; TGI (TK-10 renal): > 100 µM; TGI (U251 CNS): > 100 µM; TGI (SK-MEL-2 melanoma): > 100 µM; TGI (DMS 273 small cell lung): > 100 µM; TGI (LOX IMVI melanoma): > 100 µM; TGI (ACHN renal): > 100 µM; TGI (SK-MEL-28 melanoma): > 100 µM; TGI (HOP-18 NSCLC): > 100 µM; TGI (KM20L2 colon): > 100 µM; TGI (XF 498 CNS): > 100 µM; TGI (RXF-631 renal): > 100 µM; TGI (MOLT-4 leukemia): > 100 µM; TGI (HL-60(TB) leukemia): > 100 µM; TGI (NCI-H23 lung): > 100 µM; TGI (RPMI-8226 leukemia): > 100 µM; TGI (OVCAR-5 ovarian): > 100 µM; TGI (HCT-116 colon): > 100 µM; TGI (SN12C renal): > 100 µM; TGI (CAKI-1 renal): > 100 µM; TGI (M14 melanoma): > 100 µM; TGI (SW-620 colon): > 100 µM; TGI (HCT-15 colon): > 100 µM; TGI (NCI-H226 lung): > 100 µM; TGI (UO-31 renal): > 100 µM; TGI (MALME-3M melanoma): > 100 µM; TGI (SR leukemia): > 100 µM; TGI (UACC-62 melanoma): > 100 µM

Which TGI (OVCAR-8 ovarian) does the source give for C[C@]12CCc3nonc3C1CC[C@@H]1C2CC[C@]2(C)C(=O)CCC12 (stereo not given in full) here?
Its TGI is > 100 µM.

What about the TGI (SF-295 CNS) of the same compound?
The TGI was 83.9 µM.

And the TGI (NCI-H460 lung)?
Its TGI is > 100 µM.

And the TGI (K-562 leukemia)?
The TGI was > 100 µM.

What about the TGI (COLO 205 colon) of the same compound?
Its TGI is 56.3 µM.

And the TGI (NCI-H522 lung)?
The TGI was 72.2 µM.

And the TGI (RXF 393 renal)?
Its TGI is > 100 µM.

What about the TGI (M19-MEL melanoma) of the same compound?
The TGI was 57.2 µM.

And the TGI (SNB-78 CNS)?
Its TGI is > 100 µM.

What about the TGI (EKVX NSCLC) of the same compound?
The TGI was 69.4 µM.

What about the TGI (SNB-75 CNS) of the same compound?
The TGI was 94.5 µM.

And the TGI (OVCAR-3 ovarian)?
The TGI was 58.7 µM.

And the TGI (DMS 114 small cell lung)?
Its TGI is 60 µM.

And the TGI (DLD-1 colon)?
The TGI was > 100 µM.

And the TGI (SK-OV-3 ovarian)?
Its TGI is > 100 µM.

And the TGI (LXFL 529 NSCLC)?
Its TGI is > 100 µM.

And the TGI (A498 renal)?
The TGI was 78.8 µM.

What about the TGI (SK-MEL-5 melanoma) of the same compound?
Its TGI is 34.2 µM.

What about the TGI (KM12 colon) of the same compound?
The TGI was 37.4 µM.

And the TGI (HCC-2998 colon)?
The TGI was 71.2 µM.

And the TGI (HOP-62 NSCLC)?
The TGI was > 100 µM.

And the TGI (A549 NSCLC)?
The TGI was 82.5 µM.

What about the TGI (SNB-19 CNS) of the same compound?
The TGI was > 100 µM.

What about the TGI (SF-539 CNS) of the same compound?
The TGI was 49.8 µM.

And the TGI (786-0 renal)?
The TGI was > 100 µM.

And the TGI (IGROV1 ovarian)?
Its TGI is > 100 µM.

And the TGI (HT29 colon)?
The TGI was 37.9 µM.

What about the TGI (UACC-257 melanoma) of the same compound?
The TGI was > 10 µM.

What about the TGI (SF-268 CNS) of the same compound?
The TGI was > 100 µM.

What about the TGI (OVCAR-4 ovarian) of the same compound?
The TGI was > 100 µM.

What about the TGI (CCRF-CEM leukemia) of the same compound?
Its TGI is 57.8 µM.

And the TGI (TK-10 renal)?
The TGI was > 10 µM.

And the TGI (U251 CNS)?
Its TGI is > 100 µM.

And the TGI (SK-MEL-2 melanoma)?
Its TGI is 46.8 µM.

What about the TGI (DMS 273 small cell lung) of the same compound?
The TGI was 51.1 µM.

What about the TGI (LOX IMVI melanoma) of the same compound?
The TGI was 47.6 µM.

And the TGI (ACHN renal)?
The TGI was > 100 µM.

What about the TGI (SK-MEL-28 melanoma) of the same compound?
Its TGI is > 10 µM.

And the TGI (HOP-18 NSCLC)?
The TGI was > 100 µM.

And the TGI (KM20L2 colon)?
The TGI was 82.4 µM.

What about the TGI (XF 498 CNS) of the same compound?
The TGI was 45 µM.

What about the TGI (RXF-631 renal) of the same compound?
Its TGI is > 100 µM.

What about the TGI (MOLT-4 leukemia) of the same compound?
The TGI was 61.6 µM.

What about the TGI (HL-60(TB) leukemia) of the same compound?
Its TGI is 39.2 µM.

And the TGI (NCI-H23 lung)?
Its TGI is > 100 µM.

And the TGI (RPMI-8226 leukemia)?
The TGI was 46.5 µM.

And the TGI (OVCAR-5 ovarian)?
The TGI was > 100 µM.

What about the TGI (SN12C renal) of the same compound?
The TGI was > 100 µM.

And the TGI (CAKI-1 renal)?
The TGI was 49.2 µM.

What about the TGI (M14 melanoma) of the same compound?
Its TGI is > 100 µM.

And the TGI (SW-620 colon)?
Its TGI is > 100 µM.

And the TGI (HCT-15 colon)?
Its TGI is > 100 µM.

And the TGI (NCI-H226 lung)?
Its TGI is > 100 µM.

And the TGI (UO-31 renal)?
Its TGI is 68.2 µM.

What about the TGI (MALME-3M melanoma) of the same compound?
Its TGI is 65.7 µM.

And the TGI (HOP-92 NSCLC)?
The TGI was 55.3 µM.

What about the TGI (UACC-62 melanoma) of the same compound?
Its TGI is 68.3 µM.
